Square brackets hold non-standard residues; d marks the D form. Ends that are not written are not given here. pS = N[C@@H](COP(=O)(O)O)C(=O)O
Legend:
CD8^+ T cells (PBMCs) = assay: Intracellular cytokine staining (ICS) of PBMCs after 7 days of stimulation with MHC-I-pP (healthy donors, HH patients); type: cell-based, human; conditions: for Reactive CD8^+ T cell population, HH2: HH patient HH2; for Reactive CD8^+ T cell population, HH3: HH patient HH3; for Reactive CD8^+ T cell population, HH6: HH patient HH6; for Reactive CD8^+ T cell population, HH8: HH patient HH8; for Reactive CD8^+ T cell population, HH10: HH patient HH10; for Reactive CD8^+ T cell population, HH11: HH patient HH11; for Reactive CD8^+ T cell population, HD1: Healthy donor HD1; for Reactive CD8^+ T cell population, HD2: Healthy donor HD2; for Reactive CD8^+ T cell population, HD3: Healthy donor HD3; for Reactive CD8^+ T cell population, HD4: Healthy donor HD4; for Reactive CD8^+ T cell population, HD5: Healthy donor HD5
Outline: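 PBMCs or liver lymphocytes from HLA-A*0201-positive healthy donors and hereditary hemochromatosis patients were stimulated for 7 days with HLA-A*0201-restricted phosphopeptides and no added cytokines. After exclusion of doublets and dead cells with a fixable viability dye, CD3^+CD8^+ cells were analysed by intracellular staining for IFN-γ and TNF-α, plus CD107a where needed.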

[1] = test system: expanded TIL / IHL cultures; assay: ICS for MHC-I-pP reactivity of liver-derived lymphocyte cultures after unspecific rapid expansion protocol (REP); type: cell-based, human
[2] = test system: expanded lymphocyte cultures from deceased donor livers, cirrhotic livers and HCC; assay: ICS for MHC-I-pP reactivity of liver-derived lymphocyte cultures after phosphopeptide-specific expansion; type: cell-based, human; conditions: for ppCTL response, Deceased Donor Liver Do 2 / ppCTL response, Deceased Donor Liver Do 3 / ppCTL response, Deceased Donor Liver Do 4 / ppCTL response, Deceased Donor Liver Do 6 / ppCTL response, End-stage Liver Cirrhosis IHL 11 / ppCTL response, End-stage Liver Cirrhosis IHL 12 / ppCTL response, End-stage Liver Cirrhosis IHL 13 / ppCTL response, End-stage Liver Cirrhosis IHL 15 / ppCTL response, HCC Distal HCC 1 / ppCTL response, HCC Tumor HCC 1 / ppCTL response, HCC Distal HCC 4 / ppCTL response, HCC Distal HCC 9 / ppCTL response, HCC Tumor HCC 9 / ppCTL response, HCC Distal HCC 12: pP-specifically expanded culture; for ppCTL response, HCC Distal HCC 1: HCC 1 Distal; for ppCTL response, HCC Tumor HCC 1: HCC 1 Tumor; for ppCTL response, HCC Distal HCC 4: HCC 4 Distal; for ppCTL response, HCC Distal HCC 9: HCC 9 Distal; for ppCTL response, HCC Tumor HCC 9: HCC 9 Tumor; for ppCTL response, HCC Distal HCC 12: HCC 12 Distal
[3] = test system: unexpanded lymphocyte cultures (CD8^+ T cells); assay: ICS for MHC-I-pP reactivity of lymphocyte cultures without expansion (Table 23, No Expansion)

Row | Substance | Reactive CD8^+ T cell population, HH2 (CD8^+ T cells (PBMCs)) | Reactive CD8^+ T cell population, HH3 (CD8^+ T cells (PBMCs)) | Reactive CD8^+ T cell population, HH6 (CD8^+ T cells (PBMCs)) | Reactive CD8^+ T cell population, HH8 (CD8^+ T cells (PBMCs)) | Reactive CD8^+ T cell population, HD1 (CD8^+ T cells (PBMCs)) | Reactive CD8^+ T cell population, HD4 (CD8^+ T cells (PBMCs)) | Reactive CD8^+ T cell population, HD5 (CD8^+ T cells (PBMCs)) | Reactive CD8^+ T cells, Non-specific Expansion, Do2 [1] | Reactive CD8^+ T cells, Non-specific Expansion, Do4 [1] | Reactive CD8^+ T cells, Non-specific Expansion, HH6 [1] | Reactive CD8^+ T cells, pP-specific Expansion, Do2 [2] | Reactive CD8^+ T cells, pP-specific Expansion, Do4 [2] | Reactive CD8^+ T cells, pP-specific Expansion, HH6 [2] | ppCTL response, Deceased Donor Liver Do 2 [2] | ppCTL response, Deceased Donor Liver Do 3 [2] | ppCTL response, Deceased Donor Liver Do 4 [2] | ppCTL response, Deceased Donor Liver Do 6 [2] | ppCTL response, End-stage Liver Cirrhosis IHL 11 [2] | ppCTL response, End-stage Liver Cirrhosis IHL 12 [2] | ppCTL response, End-stage Liver Cirrhosis IHL 13 [2] | also measured
1 | VMIGsPKKV: TNS3 phosphopeptide, HLA-A*0201 (VMIG[pS]PKKV; listed as Homo sapiens) | 0 (<0.25% reactive CD8^-+ T cells) | 0 (<0.25% reactive CD8^-+ T cells) | 0 (<0.25% reactive CD8^-+ T cells) | 0 (<0.25% reactive CD8^-+ T cells) | 0 (<0.25% reactive CD8^-+ T cells) | 0 (<0.25% reactive CD8^-+ T cells) | 0 (<0.25% reactive CD8^-+ T cells) | 0 (<0.25% reactive CD8^-+ T cells) | 0 (<0.25% reactive CD8^-+ T cells) | 0 (<0.25% reactive CD8^-+ T cells) | 1 (0.25-2.5% reactive CD8^-+ T cells) | 0 (<0.25% reactive CD8^-+ T cells) | 0 (<0.25% reactive CD8^-+ T cells) | 2 (2.5-5.0% reactive CD8-+ T cells) | 0 (<0.25% reactive CD8-+ T cells) | 0 (<0.25% reactive CD8-+ T cells) | 0 (<0.25% reactive CD8-+ T cells) | 0 (<0.25% reactive CD8-+ T cells) | 0 (<0.25% reactive CD8-+ T cells) | 0 (<0.25% reactive CD8-+ T cells) | Reactive CD8^+ T cell population, HH10 (CD8^+ T cells (PBMCs)): 1 (0.25-2.5% reactive CD8^-+ T cells); Reactive CD8^+ T cell population, HH11 (CD8^+ T cells (PBMCs)): 0 (<0.25% reactive CD8^-+ T cells); Reactive CD8^+ T cell population, HD2 (CD8^+ T cells (PBMCs)): 0 (<0.25% reactive CD8^-+ T cells); Reactive CD8^+ T cell population, HD3 (CD8^+ T cells (PBMCs)): 0 (<0.25% reactive CD8^-+ T cells); ppCTL response, End-stage Liver Cirrhosis IHL 15 [2]: 0 (<0.25% reactive CD8-+ T cells); ppCTL response, HCC Distal HCC 1 [2]: 0 (<0.25% reactive CD8-+ T cells); ppCTL response, HCC Tumor HCC 1 [2]: 0 (<0.25% reactive CD8-+ T cells); ppCTL response, HCC Distal HCC 4 [2]: 0 (<0.25% reactive CD8-+ T cells); ppCTL response, HCC Distal HCC 9 [2]: 0 (<0.25% reactive CD8-+ T cells); ppCTL response, HCC Tumor HCC 9 [2]: 0 (<0.25% reactive CD8-+ T cells); ppCTL response, HCC Distal HCC 12 [2]: 0 (<0.25% reactive CD8-+ T cells); Reactive CD8^+ T cells, No Expansion, Do4 [3]: 0 (<0.25% reactive CD8^-+ T cells); Reactive CD8^+ T cells, No Expansion, HH6 [3]: 0 (<0.25% reactive CD8^-+ T cells)
2 | AVVsPPALHNA: BRD4 phosphopeptide, HLA-A*0201 (AVV[pS]PPALHNA; listed as Homo sapiens) | 0 (<0.25% reactive CD8^-+ T cells) | 0 (<0.25% reactive CD8^-+ T cells) | 2 (2.5-5.0% reactive CD8^-+ T cells) | 0 (<0.25% reactive CD8^-+ T cells) | 0 (<0.25% reactive CD8^-+ T cells) | 0 (<0.25% reactive CD8^-+ T cells) | 0 (<0.25% reactive CD8^-+ T cells) | 0 (<0.25% reactive CD8^-+ T cells) | 0 (<0.25% reactive CD8^-+ T cells) | 0 (<0.25% reactive CD8^-+ T cells) | 0 (<0.25% reactive CD8^-+ T cells) | 0 (<0.25% reactive CD8^-+ T cells) | 2 (2.5-5.0% reactive CD8^-+ T cells) | 0 (<0.25% reactive CD8-+ T cells) | 0 (<0.25% reactive CD8-+ T cells) | 0 (<0.25% reactive CD8-+ T cells) | 0 (<0.25% reactive CD8-+ T cells) | 0 (<0.25% reactive CD8-+ T cells) | 0 (<0.25% reactive CD8-+ T cells) | 0 (<0.25% reactive CD8-+ T cells) | ppCTL response, End-stage Liver Cirrhosis IHL 15 [2]: 0 (<0.25% reactive CD8-+ T cells); ppCTL response, HCC Distal HCC 1 [2]: 0 (<0.25% reactive CD8-+ T cells); ppCTL response, HCC Tumor HCC 1 [2]: 0 (<0.25% reactive CD8-+ T cells); ppCTL response, HCC Distal HCC 4 [2]: 0 (<0.25% reactive CD8-+ T cells); ppCTL response, HCC Distal HCC 9 [2]: 0 (<0.25% reactive CD8-+ T cells); ppCTL response, HCC Tumor HCC 9 [2]: 1 (0.25-2.5% reactive CD8-+ T cells); ppCTL response, HCC Distal HCC 12 [2]: 0 (<0.25% reactive CD8-+ T cells); Reactive CD8^+ T cells, No Expansion, HH6 [3]: 2 (2.5-5.0% reactive CD8^-+ T cells)
3 | RTHsLLLLL (RTH[pS]LLLLL; listed as Homo sapiens) | 0 (<0.25% reactive CD8^-+ T cells) | 0 (<0.25% reactive CD8^-+ T cells) | 0 (<0.25% reactive CD8^-+ T cells) | 0 (<0.25% reactive CD8^-+ T cells) | 0 (<0.25% reactive CD8^-+ T cells) | 0 (<0.25% reactive CD8^-+ T cells) | 0 (<0.25% reactive CD8^-+ T cells) | 0 (<0.25% reactive CD8^-+ T cells) | 0 (<0.25% reactive CD8^-+ T cells) | 1 (0.25-2.5% reactive CD8^-+ T cells) | 0 (<0.25% reactive CD8^-+ T cells) | 0 (<0.25% reactive CD8^-+ T cells) | 0 (<0.25% reactive CD8^-+ T cells) | 0 (<0.25% reactive CD8-+ T cells) | 0 (<0.25% reactive CD8-+ T cells) | 0 (<0.25% reactive CD8-+ T cells) | 0 (<0.25% reactive CD8-+ T cells) | 0 (<0.25% reactive CD8-+ T cells) | 0 (<0.25% reactive CD8-+ T cells) | 0 (<0.25% reactive CD8-+ T cells) | Reactive CD8^+ T cell population, HH10 (CD8^+ T cells (PBMCs)): 0 (<0.25% reactive CD8^-+ T cells); Reactive CD8^+ T cell population, HH11 (CD8^+ T cells (PBMCs)): 0 (<0.25% reactive CD8^-+ T cells); Reactive CD8^+ T cell population, HD2 (CD8^+ T cells (PBMCs)): 0 (<0.25% reactive CD8^-+ T cells); Reactive CD8^+ T cell population, HD3 (CD8^+ T cells (PBMCs)): 0 (<0.25% reactive CD8^-+ T cells); ppCTL response, End-stage Liver Cirrhosis IHL 15 [2]: 0 (<0.25% reactive CD8-+ T cells); ppCTL response, HCC Distal HCC 1 [2]: 0 (<0.25% reactive CD8-+ T cells); ppCTL response, HCC Tumor HCC 1 [2]: 0 (<0.25% reactive CD8-+ T cells); ppCTL response, HCC Distal HCC 4 [2]: 0 (<0.25% reactive CD8-+ T cells); ppCTL response, HCC Distal HCC 9 [2]: 0 (<0.25% reactive CD8-+ T cells); ppCTL response, HCC Tumor HCC 9 [2]: 0 (<0.25% reactive CD8-+ T cells); ppCTL response, HCC Distal HCC 12 [2]: 0 (<0.25% reactive CD8-+ T cells); Reactive CD8^+ T cells, No Expansion, Do4 [3]: 2 (2.5-5.0% reactive CD8^-+ T cells); Reactive CD8^+ T cells, No Expansion, HH6 [3]: 1 (0.25-2.5% reactive CD8^-+ T cells)
4 | SMTRsPPRV: SRSF8 phosphopeptide, HLA-A*0201 (SMTR[pS]PPRV; listed as Homo sapiens) | 0 (<0.25% reactive CD8^-+ T cells) | 0 (<0.25% reactive CD8^-+ T cells) | 0 (<0.25% reactive CD8^-+ T cells) | 0 (<0.25% reactive CD8^-+ T cells) | 0 (<0.25% reactive CD8^-+ T cells) | 0 (<0.25% reactive CD8^-+ T cells) | 0 (<0.25% reactive CD8^-+ T cells) | 0 (<0.25% reactive CD8^-+ T cells) | 0 (<0.25% reactive CD8^-+ T cells) | 0 (<0.25% reactive CD8^-+ T cells) | 0 (<0.25% reactive CD8^-+ T cells) | 0 (<0.25% reactive CD8^-+ T cells) | 0 (<0.25% reactive CD8^-+ T cells) | 1 (0.25-2.5% reactive CD8-+ T cells) | 0 (<0.25% reactive CD8-+ T cells) | 0 (<0.25% reactive CD8-+ T cells) | 0 (<0.25% reactive CD8-+ T cells) | 0 (<0.25% reactive CD8-+ T cells) | 0 (<0.25% reactive CD8-+ T cells) | 0 (<0.25% reactive CD8-+ T cells) | Reactive CD8^+ T cell population, HH10 (CD8^+ T cells (PBMCs)): 0 (<0.25% reactive CD8^-+ T cells); Reactive CD8^+ T cell population, HH11 (CD8^+ T cells (PBMCs)): 0 (<0.25% reactive CD8^-+ T cells); Reactive CD8^+ T cell population, HD2 (CD8^+ T cells (PBMCs)): 0 (<0.25% reactive CD8^-+ T cells); Reactive CD8^+ T cell population, HD3 (CD8^+ T cells (PBMCs)): 0 (<0.25% reactive CD8^-+ T cells); ppCTL response, End-stage Liver Cirrhosis IHL 15 [2]: 6 (>20% reactive CD8-+ T cells); ppCTL response, HCC Distal HCC 1 [2]: 0 (<0.25% reactive CD8-+ T cells); ppCTL response, HCC Tumor HCC 1 [2]: 0 (<0.25% reactive CD8-+ T cells); ppCTL response, HCC Distal HCC 4 [2]: 0 (<0.25% reactive CD8-+ T cells); ppCTL response, HCC Distal HCC 9 [2]: 0 (<0.25% reactive CD8-+ T cells); ppCTL response, HCC Tumor HCC 9 [2]: 0 (<0.25% reactive CD8-+ T cells); ppCTL response, HCC Distal HCC 12 [2]: 0 (<0.25% reactive CD8-+ T cells); Reactive CD8^+ T cells, No Expansion, Do4 [3]: 4 (7.5-10% reactive CD8^-+ T cells); Reactive CD8^+ T cells, No Expansion, HH6 [3]: 0 (<0.25% reactive CD8^-+ T cells)
